Assay results taken from ChEMBL document CHEMBL1150893, “Grenadadiene and grenadamide, cyclopropyl-containing fatty acid metabolites from the marine cyanobacterium Lyngbya majuscula” (J Nat Prod, 1998).
pKi: −log10 of the molar value. Converted amounts (≈) assume the structure as drawn.

Assays:
[1] = Binding affinity to cannabinoid receptor in rat brain membrane assessed as cannabinomimetic activity; assay type: cell membranes
[2] = Toxicity in Artemia salina; assay type: organism-based; details: in vivo, read-out: LD50 (the source's name)

Row | Compound | pKi [1] | LC50 [2] [µg/mL]
1 | CCCCCCC[C@@H]1C[C@H]1CCC(=O)O/C=C\C=C\COC(C)=O [DEBROMOGRENADINE] | 5.33 | 5 (≈ 14.9 µM)
2 | CCCCCCC[C@@H]1C[C@H]1CCC(=O)NCCc1ccccc1 [GRENADAMIDE C] | 5.33 | 5 (≈ 15.8 µM)
